Measurements taken from the supplement of paper PMC10307832.

Tests used:
Experiment in all cases: relative viability (nuclei count vs DMSO), 5 days (fraction); higher = more cells survive
Tanzisertib + Lapatinib = compound: O[C@H]1CC[C@H](Nc2ncc3nc(Nc4c(F)cc(F)cc4F)n([C@H]4CCOC4)c3n2)CC1 [Tanzisertib] + CS(=O)(=O)CCNCc1ccc(-c2ccc3ncnc(Nc4ccc(OCc5cccc(F)c5)c(Cl)c4)c3c2)o1 [Lapatinib] (partner 2 µM)
Method in brief: (§1)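 Lung cancer cell lines in 1536-well plates got either a single drug or a fixed anchor-drug dose together with five library-drug doses (not always all listed) in √10 steps, by pin tool, on the day after seeding. Nuclei were counted after 5 days, and relative viability is the treated-to-vehicle ratio of nuclei counts. Values are medians of duplicate plates.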

[1] = compound: C[C@@H](N)c1ccc(C(=O)Nc2ccnc3[nH]ccc23)cc1 + O=C(c1cc(Cc2n[nH]c(=O)c3ccccc23)ccc1F)N1CCN(C(=O)C2CC2)CC1 [Olaparib] (partner 8 µM)
Method in brief: as §1

[2] = compound: C[C@@H](N)c1ccc(C(=O)Nc2ccnc3[nH]ccc23)cc1 + CC(=O)Nc1cccc(-n2c(=O)n(C3CC3)c(=O)c3c(Nc4ccc(I)cc4F)n(C)c(=O)c(C)c32)c1 [Trametinib] (partner 0.02 µM)
Method in brief: as §1

[3] = compound: C1CNCCC1C2=CC(=NN2)C3=CC=NC=C3 + Cc1nc(NC(=O)N2CCC[C@H]2C(N)=O)sc1-c1ccnc(C(C)(C)C(F)(F)F)c1 [Alpelisib] (partner 2 µM)
Method in brief: as §1

Cell Line | relative viability (Tanzisertib + Lapatinib; first compound 0.08 µM) | relative viability (Tanzisertib + Lapatinib; first compound 0.253 µM) | relative viability (Tanzisertib + Lapatinib; first compound 0.8 µM) | relative viability (Tanzisertib + Lapatinib; first compound 2.53 µM) | relative viability (Tanzisertib + Lapatinib; first compound 8 µM) | relative viability ([1]; first compound 0.04 µM) | relative viability ([1]; first compound 0.1265 µM) | relative viability ([1]; first compound 0.4 µM) | relative viability ([1]; first compound 1.265 µM) | relative viability ([1]; first compound 4 µM) | relative viability ([2]; first compound 0.04 µM) | relative viability ([2]; first compound 0.1265 µM) | relative viability ([2]; first compound 0.4 µM) | relative viability ([2]; first compound 1.265 µM) | relative viability ([2]; first compound 4 µM) | relative viability ([3]; first compound 0.08 µM) | relative viability ([3]; first compound 0.8 µM) | relative viability ([3]; first compound 2.53 µM) | relative viability ([3]; first compound 8 µM)
NCI-H1792 | 1.01 | 0.967 | 0.867 | 0.825 | 0.798 | 0.419 | 0.523 | 0.564 | 0.383 | 0.319 | 0.5 | 0.465 | 0.597 | 0.698 | 0.324 | 0.637 | 0.519 | 0.773 | 0.618
NCI-H1793 | 0.737 | 0.873 | 0.74 | 0.608 | 0.643 | 1.09 | 0.999 | 1.04 |  | 0.928 | 0.46 | 0.442 | 0.452 |  | 0.61 | 0.659 | 0.569 | 0.783 | 0.739
NCI-H1915 | 0.994 | 1 | 0.897 | 1.02 | 0.947 |  | 0.229 | 0.26 |  | 0.216 |  | 0.299 | 0.298 |  | 0.239 | 1 | 1.06 | 1.07 | 1.09
NCI-H1944 | 0.949 | 0.935 | 0.862 | 0.873 | 0.796 | 0.453 | 0.396 | 0.434 | 0.432 | 0.401 | 0.479 | 0.412 | 0.467 | 0.503 | 0.402 | 0.85 | 0.601 | 0.83 | 0.938
NCI-H1975 | 1.06 | 0.944 | 0.87 | 0.942 | 0.912 | 0.771 | 0.757 | 0.78 | 0.67 | 0.523 | 0.286 | 0.4 | 0.449 | 0.194 | 0.233 | 0.667 | 0.622 | 0.58 | 0.629
NCI-H1993 | 0.815 | 0.846 | 0.914 | 0.777 | 0.748 | 1.4 | 1.14 |  | 1.02 |  | 0.607 | 0.519 |  | 0.569 | 0.511 | 0.654 | 0.668 | 0.699 | 0.669
NCI-H2009 | 1.12 | 0.983 | 0.847 | 1.05 | 0.296 | 0.657 | 0.666 | 0.611 | 0.595 | 0.547 | 0.219 | 0.268 | 0.236 | 0.21 | 0.214 | 1.25 | 1.16 | 1.13 | 1.14
NCI-H2023 | 0.92 | 0.809 | 0.867 | 0.925 | 0.261 | 0.534 | 0.497 | 0.516 | 0.503 | 0.495 | 0.607 | 0.619 | 0.657 |  | 0.586 | 0.539 | 0.5 | 0.573 | 0.613
NCI-H2085 | 0.794 | 0.726 | 0.818 | 0.83 | 0.755 | 0.762 | 0.726 | 0.667 | 0.706 | 0.619 | 0.653 | 0.702 | 0.652 | 0.726 | 0.583 | 0.926 | 0.514 | 1.02 | 0.98
NCI-H2087 | 1.19 | 1.08 | 1.2 | 1.07 | 0.974 | 0.733 | 0.598 | 0.605 | 0.625 | 0.576 | 0.284 | 0.214 | 0.202 | 0.229 | 0.251 | 0.862 | 1.07 | 1.07 | 0.985
NCI-H2126 | 0.772 | 0.807 | 0.82 | 0.694 | 0.724 | 0.945 | 0.946 | 0.915 | 0.988 | 0.948 | 0.515 | 0.561 | 0.534 | 0.637 | 0.676 | 0.761 | 0.634 | 0.777 | 0.752
NCI-H2170 | 0.285 | 0.252 | 0.26 | 0.262 | 0.253 | 0.618 | 0.584 | 0.614 | 0.746 | 0.543 | 0.959 | 0.944 | 0.926 | 0.999 | 0.939 | 0.734 | 0.761 | 0.81 | 0.684
NCI-H2228 | 1.27 | 1.15 | 1.13 | 1.23 | 1.13 | 0.535 | 0.726 | 0.714 | 0.917 | 0.771 | 0.556 | 0.428 | 0.886 | 0.395 | 0.475 | 0.769 | 0.872 | 0.851 | 0.617
NCI-H2347 | 1.05 | 1.01 | 0.971 | 1.07 | 0.869 | 0.53 | 0.579 | 0.534 | 0.566 | 0.461 | 0.283 | 0.337 | 0.366 | 0.304 | 0.175 | 0.989 | 0.938 | 1.17 | 1.01
NCI-H2405 | 1.26 | 1.11 | 1.1 | 1.36 | 0.612 |  | 0.863 | 0.741 | 0.587 | 0.337 |  | 0.64 | 0.418 | 0.377 | 0.299 | 0.792 | 0.62 | 0.875 | 0.686
NCI-H3122 | 1.03 | 1.01 | 0.998 | 1.06 | 1.06 | 0.625 | 0.613 | 0.638 | 0.702 | 0.622 | 0.231 | 0.229 | 0.223 | 0.26 | 0.234 | 0.87 | 0.81 | 0.799 | 0.753
PC-3 [JPC-3] | 0.466 | 0.406 | 0.494 | 0.422 | 0.494 | 0.968 | 1.22 | 1.13 | 1.23 | 1.01 | 0.656 | 0.695 | 0.732 | 0.651 | 0.549 | 1 | 1.03 | 1.05 | 1.02
